The record followed here is ChEMBL document CHEMBL1201862, “PubChem BioAssay data set” (2004).

For orientation: GI50 means the concentration giving 50% growth inhibition.

Counter-ions that a name gives are not always drawn.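 Cultured in 96-well plates, cells were exposed to test compound for 48 hours across five concentrations. GI50 = concentration required for 50% inhibition of growth.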 The source made the active and inactive calls. Cut-off read from the data, not from the text of the source: active = GI50 up to about 1.1 µM and inactive = higher. Bounds are passed on as bounds.

Some test systems named below: DMS-114; LXFL 529; XF498; SNB-78; DLD-1; RXF 631; KM-20L2; M19-MEL; HOP-18.
Experiment in all cases: DTP human tumour cell line panel, 48 h

Turning to `CNC(=O)NCCCCC(NC(C)=O)C(=O)NCc1ccccc1` (stereo unspecified), the GI50 in the assay on DMS-114, with LXFL 529, in the assay on XF498, in the assay on SNB-78, with DLD-1 and in the assay on RXF 631 was > 100 µM (inactive) each time. The GI50 with KM-20L2 and in the assay on M19-MEL was > 100 µM (inactive) throughout.

Take `CCOC(=O)N1CCN(P(=O)(Nc2ccc3[nH]c(NC(=O)OC)nc3c2)Oc2ccccc2)CC1` (stereo unspecified): the GI50 in the assay with DMS-114 was > 100 µM (inactive); with HOP-18, 87.9 µM (inactive); in the assay with LXFL 529, > 100 µM (inactive); in the assay on SNB-78, > 100 µM (inactive); in the assay on DLD-1 it was > 100 µM (inactive); in the assay on KM-20L2 it was > 100 µM (inactive). Further, in the assay on M19-MEL, the GI50 is > 100 µM (inactive).

Take `COc1cc2c(cc1O)CCN[C@@]21CS[C@H]2c3c(OC(C)=O)c(C)c4c(c3C(COC1=O)N1C2C2c3c(cc(C)c(OC)c3O)CC([C@@H]1O)N2C)OCO4` (stereo partly specified): the GI50 in the assay with DMS-114, with LXFL 529, with XF498, in the assay on DLD-1, in the assay on RXF 631 and in the assay with KM-20L2 was < 1e-06 µM (active) each time. Also, the GI50 with M19-MEL was < 1e-06 µM (active).

For the compound `Nc1ncnc2c1ncn2C1CC(O)C(CO)O1` (stereo unspecified), the GI50 in the assay on DMS-114, in the assay on LXFL 529, with SNB-78, in the assay on DLD-1, in the assay on KM-20L2 and with M19-MEL was > 100 µM (inactive) throughout.

As to `CC1CC2(CCC1OCc1ccccc1)OCCO2` (stereo unspecified), the GI50 in the assay on DMS-114, in the assay with LXFL 529, in the assay on XF498, in the assay with SNB-78, in the assay with DLD-1 and with M19-MEL was > 100 µM (inactive) each time.

As for `O=C(CCc1nnc2s/c(=C\c3ccc(Cl)c(Cl)c3)c(=O)n12)Nc1ccc(Cl)c(Cl)c1`, the GI50 in the assay on DMS-114 is 91.2 µM (inactive); in the assay with HOP-18, 75.7 µM (inactive); with LXFL 529, 88.1 µM (inactive); in the assay on XF498, 38.7 µM (inactive); with KM-20L2, > 100 µM (inactive); in the assay on M19-MEL, 64.7 µM (inactive).

As to `COC1=CC(=O)[C@H]2[C@H](C)C(c3ccccc3)[C@@]2(C)C1=O` (stereo partly specified), the GI50 in the assay with LXFL 529, in the assay with XF498, with SNB-78, with DLD-1 and with M19-MEL was > 100 µM (inactive) in each case.

Regarding `CCOC(=O)C1=C(C)CC2C(=O)OC(=O)C2C1(C)C` (stereo unspecified), the GI50 in the assay on DMS-114, in the assay on HOP-18, with LXFL 529, in the assay on DLD-1 and in the assay with M19-MEL was > 100 µM (inactive) in each case.

For the compound `CC/C(C)=C1\CCC(CN(C)C)C1=O` (stereo unspecified), the GI50 was 23.4 µM (inactive) with DMS-114; 18.2 µM (inactive) in the assay with HOP-18; 16.3 µM (inactive) in the assay on LXFL 529; 19.7 µM (inactive) in the assay with XF498; 24.8 µM (inactive) in the assay on SNB-78; 16.4 µM (inactive) in the assay on DLD-1. Moreover, the GI50 with RXF 631 was 19.9 µM (inactive); with KM-20L2, 21.7 µM (inactive); in the assay on M19-MEL it was 18.1 µM (inactive).

For `CCCCCCCCCCCCCCNCC(OCC)OCC`, the GI50 in the assay on DMS-114 is 12.1 µM (inactive); in the assay with HOP-18 it was 16.6 µM (inactive); with LXFL 529, 15.1 µM (inactive); in the assay on XF498, 13.6 µM (inactive); in the assay on SNB-78 it was 16.8 µM (inactive); with DLD-1 it was 13.7 µM (inactive). Moreover, the GI50 in the assay on KM-20L2 is 10.9 µM (inactive); in the assay on M19-MEL, 16.2 µM (inactive).

In the case of `COC(=O)C1C(=O)NC2(C)CC1c1ccccc1O2` (stereo unspecified), the GI50 in the assay with DMS-114, in the assay with LXFL 529, in the assay on XF498, in the assay with SNB-78, in the assay with DLD-1 and in the assay with M19-MEL was > 100 µM (inactive) throughout.

With `N#C/C(=C1\N=NC(N)=C(c2ccc(Cl)cc2)C1=O)c1ccc(Cl)cc1`, the GI50 in the assay with DMS-114, in the assay on HOP-18, in the assay with LXFL 529, in the assay with XF498, with SNB-78 and with DLD-1 was > 100 µM (inactive) each time. Moreover, the GI50 with KM-20L2 and in the assay with M19-MEL was > 100 µM (inactive) in each case.

Take `Cc1ccc(NC(=O)CCC/C(CC(=O)c2ccc(Br)cc2)=N/NC(=O)CC#N)cc1`: the GI50 in the assay on DMS-114, with LXFL 529, with SNB-78, with DLD-1, in the assay on KM-20L2 and with M19-MEL was > 100 µM (inactive) throughout.

On to `COc1cc2c(cc1OC)C(C(CO)CO)N(CC(O)CCl)CC2` (stereo unspecified), for which the GI50 in the assay with LXFL 529, with XF498, in the assay on SNB-78, in the assay on DLD-1, in the assay with RXF 631 and with KM-20L2 was > 100 µM (inactive) in each case. Further, the GI50 in the assay on M19-MEL is > 100 µM (inactive).

Turning to `CC(NC(C)(C)C)C(=O)c1cccc(Cl)c1` (stereo unspecified) [BUPROPION HYDROCHLORIDE], the GI50 in the assay on DMS-114, in the assay on LXFL 529, with XF498, in the assay on DLD-1, in the assay on RXF 631 and with KM-20L2 was > 100 µM (inactive) in each case. Moreover, the GI50 in the assay with M19-MEL is > 100 µM (inactive).

On to `COC(=O)C1Cc2c([nH]c3ccccc23)C(C2CCCCC2)N1` (stereo unspecified), for which the GI50 in the assay with DMS-114, in the assay on HOP-18, in the assay on LXFL 529, with DLD-1, in the assay on RXF 631 and in the assay with KM-20L2 was > 100 µM (inactive) throughout. Besides, the GI50 in the assay with M19-MEL was > 100 µM (inactive).

Turning to `COc1ccc2c(c1)CCC1C3(CCCC21C)OCCO3` (stereo unspecified), the GI50 is 23.1 µM (inactive) with HOP-18; 18.2 µM (inactive) in the assay with LXFL 529; 19.4 µM (inactive) with SNB-78; 15.7 µM (inactive) with DLD-1; 23.9 µM (inactive) in the assay with RXF 631; 19.7 µM (inactive) in the assay on KM-20L2. Also, the GI50 in the assay with M19-MEL is 18.6 µM (inactive).

On to `CC(=O)O[C@H]1CCC2[C@@H]3CCC4Nc5[nH]ncc5C[C@]4(C)C3CC[C@@]21C` (stereo partly specified), for which the GI50 in the assay with DMS-114 was 35.8 µM (inactive); in the assay on HOP-18, > 100 µM (inactive); in the assay with LXFL 529, 28.5 µM (inactive); in the assay on XF498 it was 26.2 µM (inactive); in the assay with RXF 631, > 100 µM (inactive); in the assay on KM-20L2, 28.1 µM (inactive). Also, the GI50 with M19-MEL was 32.7 µM (inactive).

For the compound `CN(C)C(=S)/N=c1\ssc(=S)n1C1CCCCC1`, the GI50 is 13.9 µM (inactive) with DMS-114; > 100 µM (inactive) in the assay on HOP-18; 13.2 µM (inactive) with LXFL 529; 19.4 µM (inactive) in the assay with XF498; 21.5 µM (inactive) with DLD-1; 19.5 µM (inactive) with RXF 631. The GI50 was 40.5 µM (inactive) with KM-20L2 and 18.7 µM (inactive) in the assay with M19-MEL.

On to `COc1cc([C@H]2c3[nH]c4ccccc4c3C[C@H]3COC(=O)N32)cc(OC)c1O`, for which the GI50 in the assay with HOP-18 was 64.3 µM (inactive); in the assay with XF498 it was 0.0671 µM (active); with SNB-78, 2.3 µM (inactive); with DLD-1 it was 0.132 µM (active); in the assay on KM-20L2 it was 0.04 µM (active).

Turning to `COc1ccc(CN2C(=O)[C@@H]3Cc4c(OC)c(C)c(OC)c(OC)c4[C@H](/C2=C\c2cc(OC)c(OC)c(C)c2OC)N3C(=O)OC(C)C)cc1`, the GI50 in the assay on DMS-114 is 7.38 µM (inactive); in the assay on HOP-18 it was > 100 µM (inactive); in the assay with LXFL 529, 7.24 µM (inactive); with DLD-1 it was 69.3 µM (inactive); with RXF 631 it was > 100 µM (inactive); in the assay on KM-20L2 it was > 100 µM (inactive). In addition, the GI50 with M19-MEL was 42.7 µM (inactive).

As to `C=CCN1COc2c(cc3c4c(cccc24)C(=O)O3)C1`, the GI50 in the assay on DMS-114 is 17.9 µM (inactive); in the assay on HOP-18 it was > 100 µM (inactive); in the assay with LXFL 529, 18.2 µM (inactive); in the assay with XF498, 20.2 µM (inactive); with DLD-1, 25.4 µM (inactive); with KM-20L2, 24.3 µM (inactive). Moreover, in the assay with M19-MEL, the GI50 was 18.7 µM (inactive).

For the compound `CC1CC2C(=O)NC(=O)C2c2[nH]c3ccccc3c21` (stereo unspecified), the GI50 in the assay on DMS-114 is 96.2 µM (inactive); in the assay on LXFL 529, > 100 µM (inactive); with XF498 it was > 100 µM (inactive); in the assay with SNB-78, > 100 µM (inactive); in the assay with DLD-1, > 100 µM (inactive); in the assay on M19-MEL, > 100 µM (inactive).

In the case of `Cc1nc2c(n1CCO)C(=O)c1ccccc1C2=O`, the GI50 in the assay on LXFL 529 was 36.6 µM (inactive); with XF498, 33 µM (inactive); in the assay with SNB-78, 46.5 µM (inactive); in the assay on DLD-1 it was 38.2 µM (inactive); in the assay on KM-20L2, 33.3 µM (inactive); in the assay with M19-MEL, 2.57 µM (inactive).

With `CSc1nc(Cl)c(Br)c(Sc2nc(N)nc3nc[nH]c23)n1`, the GI50 in the assay with DMS-114 is 4.74 µM (inactive); with LXFL 529, 5.79 µM (inactive); with XF498 it was 15.8 µM (inactive); in the assay with DLD-1 it was 11.1 µM (inactive); with KM-20L2 it was 5.9 µM (inactive); with M19-MEL, 7.45 µM (inactive).

As for `CCOC(=O)CC(C)C1(C=O)CCCCC1=O` (stereo unspecified), the GI50 with DMS-114 is 23 µM (inactive); in the assay with HOP-18, > 100 µM (inactive); in the assay on LXFL 529, > 100 µM (inactive); in the assay on XF498, > 100 µM (inactive); in the assay on SNB-78, > 100 µM (inactive); in the assay on DLD-1, 56 µM (inactive). For the same compound, the GI50 in the assay on RXF 631, in the assay with KM-20L2 and with M19-MEL was > 100 µM (inactive) each time.

On to `CC(=O)OCC(OC(C)=O)C(OC(C)=O)C(OC(C)=O)C(=O)CNn1c(-c2ccccc2Cl)nc2ccccc2c1=O` (stereo unspecified), for which the GI50 in the assay with DMS-114, in the assay on LXFL 529, with SNB-78, in the assay with KM-20L2 and with M19-MEL was > 100 µM (inactive) each time.
